In US20100076024A1, “Novel Compounds as Serine Protease Inhibitors” (priority 2007, published 2010):

Target: recombinant human DPP-4 (Homo sapiens, UniProt P27487)
Test: recombinant human DPP-4 fluorogenic substrate cleavage assay
Assay type: biochemical
Settings: compound 10 uM, substrate (H-Ala-Pro)-2-Rh110 10 μM, 1 hour pre-incubation, room temperature; for inhibition at 10 µM: read-out: % Inhib at 10 uM
Experimental: For compound screening, the assay employed measures the activity of recombinant human DPP-4 to cleave the synthetic fluorogenic substrate (H-Ala-Pro)-2—Rh110. The reaction is run in 384-well plates. Compound solutions in assay buffer are pre-incubated with the human recombinant DPP-4 and the reaction is initiated by the addition of the substrate. The product of the reaction is quantified by measuring the fluorescence intensity using Tecan Ultraplate reader. For each compound concentration tested, the percent of inhibition is calculated.
For the determination of IC50 and/or % of inhibition values, the assay is performed at room temperature in 384-well plates using a TECAN Ultra plate reader. Total assay volume is 30 μl. Test compounds are dissolved in 90% (v/v) DMSO/water and diluted in water containing 0.05% (w/v) CHAPS to 3-times the desired assay concentration. For the assay, 10 μl water/CHAPS (±test compound) are added per well, followed by the addition of 10 μl hDPP4 solution (diluted with 1.5× assay buffer, i.e. 37.5 mM Tris/HCl, pH 7.4, 210 mM NaCl, 15 mM KCl, and 0.05% (w/v) CHAPS). The final assay concentrations are […] for hDPP4 according to the enzyme concentrations determined by the Bradford method. After 1 hour of pre-incubation at room temperature, the reaction is started by the addition of 10 μl substrate solution (substrate dilutes in 1.5× assay buffer, final substrate concentration is 10 μM). The effect of the compound on the enzymatic activity is obtained from the linear progression curves and determined from two readings, the first one taken directly after the addition of substrate (t=0 min) and the second one after 1 hour (t=60 min). The apparent inhibition constant, IC50, is calculated from the plot of percentage of inhibition vs. inhibitor concentration using non-linear regression analysis software (XLfit, Vers. 4.0; ID Business Solution Ltd., Guildford, Surrey, UK).

Chain of recombinant human DPP-4 (P27487 whole entry): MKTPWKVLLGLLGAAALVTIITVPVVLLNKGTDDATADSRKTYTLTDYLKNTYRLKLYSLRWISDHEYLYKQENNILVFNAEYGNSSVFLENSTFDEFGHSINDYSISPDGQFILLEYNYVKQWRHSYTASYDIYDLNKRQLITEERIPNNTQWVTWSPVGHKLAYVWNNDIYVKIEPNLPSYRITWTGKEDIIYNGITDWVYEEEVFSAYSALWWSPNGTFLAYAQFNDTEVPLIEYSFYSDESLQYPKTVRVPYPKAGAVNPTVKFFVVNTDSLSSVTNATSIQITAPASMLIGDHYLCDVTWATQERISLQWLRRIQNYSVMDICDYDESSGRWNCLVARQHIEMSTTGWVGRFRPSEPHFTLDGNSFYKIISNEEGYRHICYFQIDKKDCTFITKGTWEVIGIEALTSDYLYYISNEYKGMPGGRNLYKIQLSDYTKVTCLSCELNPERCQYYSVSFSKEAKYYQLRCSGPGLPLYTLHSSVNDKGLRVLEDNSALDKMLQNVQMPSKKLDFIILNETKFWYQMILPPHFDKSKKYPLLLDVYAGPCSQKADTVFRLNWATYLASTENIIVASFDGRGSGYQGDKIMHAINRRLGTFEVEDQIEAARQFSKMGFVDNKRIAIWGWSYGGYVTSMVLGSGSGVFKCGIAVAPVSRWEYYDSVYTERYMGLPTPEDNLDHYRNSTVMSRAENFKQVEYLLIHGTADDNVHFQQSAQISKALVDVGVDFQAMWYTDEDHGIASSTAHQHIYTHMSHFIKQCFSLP

Structure (SMILES) | inhibition at 10 µM [%] | % Inhib at 10 uM [%]
COc1cccc(C2CCCN(CC[C@H](N)Cc3cc(F)c(F)cc3F)C2)c1 (stereo partly drawn) [Compound 3, (R)-3-[3-(3-Methoxy-phenyl)-piperidin-1-yl]-1-(2,4,5-trifluoro-benzyl)-propylamine] | 97.9 | 
COc1ccc(C2CCCN(CC[C@H](N)Cc3cc(F)c(F)cc3F)C2)cc1 (stereo partly drawn) [Compound 2, (R)-3-[3-(4-Methoxy-phenyl)-piperidin-1-yl]-1-(2,4,5-trifluoro-benzyl)-propylamine] | 99.5 | 
N[C@@H](CCN1CCCC(c2ccccc2C(F)(F)F)C1)Cc1cc(F)c(F)cc1F (stereo partly drawn) [Compound 7, (R)-1-(2,4,5-Trifluoro-benzyl)-3-[3-(2-trifluoromethyl-phenyl)-piperidin-1-yl]-propylamine] | 98.3 | 
N[C@@H](CCN1CCCC(c2ccccc2)C1)Cc1cc(F)c(F)cc1F (stereo partly drawn) [Compound 1, (R)-3-(3-Phenyl-piperidin-1-yl)-1-(2,4,5-trifluoro-benzyl)-propylamine] | 99.9 | 
Cc1ccc(C2CCCN(CC[C@H](N)Cc3cc(F)c(F)cc3F)C2)cc1 (stereo partly drawn) [Compound 8, (R)-3-(3-p-Tolyl-piperidin-1-yl)-1-(2,4,5-trifluoro-benzyl)-propylamine] | 99.6 | 
COc1ccccc1C1CCCN(CC[C@H](N)Cc2cc(F)c(F)cc2F)C1 (stereo partly drawn) [Compound 4, (R)-3-[3-(2-Methoxy-phenyl)-piperidin-1-yl]-1-(2,4,5-trifluoro-benzyl)-propylamine] | 98.9 | 
COc1cccc(C2CCN(CC[C@H](N)Cc3cc(F)c(F)cc3F)C2)c1 (stereo partly drawn) [Compound 18, (R)-3-[3-(3-Methoxy-phenyl)-pyrrolidin-1-yl]-1-(2,4,5-trifluoro-benzyl)-propylamine] | 99.2 | 
N[C@@H](CCN1CCCC(c2cccc(C(F)(F)F)c2)C1)Cc1cc(F)c(F)cc1F (stereo partly drawn) [Compound 6, (R)-1-(2,4,5-Trifluoro-benzyl)-3-[3-(3-trifluoromethyl-phenyl)-piperidin-1-yl]-propylamine] | 98.9 | 
Cc1cccc(C2CCCN(CC[C@H](N)Cc3cc(F)c(F)cc3F)C2)c1 (stereo partly drawn) [Compound 9, (R)-3-(3-m-Tolyl-piperidin-1-yl)-1-(2,4,5-trifluoro-benzyl)-propylamine] | 99.7 | 
N[C@@H](CCN1CCCC(c2ccc(C(F)(F)F)cc2)C1)Cc1cc(F)c(F)cc1F (stereo partly drawn) [Compound 5, (R)-1-(2,4,5-Trifluoro-benzyl)-3-[3-(4-trifluoromethyl-phenyl)-piperidin-1-yl]-propylamine] | 99.3 | 
Cc1ccccc1C1CCCN(CC[C@H](N)Cc2cc(F)c(F)cc2F)C1 (stereo partly drawn) [Compound 10, (R)-3-(3-o-Tolyl-piperidin-1-yl)-1-(2,4,5-trifluoro-benzyl)-propylamine] | 99.4 | 

Other lines, results leading:

inhibition at 10 µM [%] | % Inhib at 10 uM [%] | Structure (SMILES)
99.5 |  | N[C@@H](CCN1CCC(c2ccccc2Cl)C1)Cc1cc(F)c(F)cc1F (stereo partly drawn) [Compound 16, (R)-3-[3-(2-Chloro-phenyl)-pyrrolidin-1-yl]-1-(2,4,5-trifluoro-benzyl)-propylamine]
99.6 |  | N[C@@H](CCN1CCC(c2ccc(F)cc2)C1)Cc1cc(F)c(F)cc1F (stereo partly drawn) [Compound 21, (R)-3-[3-(4-Fluoro-phenyl)-pyrrolidin-1-yl]-1-(2,4,5-trifluoro-benzyl)-propylamine]
99.3 |  | N[C@@H](CCN1CCCCC1)Cc1cc(F)c(F)cc1F [Compound 24, (R)-3-Piperidin-1-yl-1-(2,4,5-trifluoro-benzyl)-propylamine]
99.6 |  | N[C@@H](CCN1CCCC(c2ccc(F)cc2)C1)Cc1cc(F)c(F)cc1F (stereo partly drawn) [Compound 11, (R)-3-[3-(4-Fluoro-phenyl)-piperidin-1-yl]-1-(2,4,5-trifluoro-benzyl)-propylamine]
99.6 |  | N[C@@H](CCN1CCC(c2ccccc2)C1)Cc1cc(F)c(F)cc1F (stereo partly drawn) [Compound 14, (R)-3-(3-Phenyl-pyrrolidin-1-yl)-1-(2,4,5-trifluoro-benzyl)-propylamine]
99.7 |  | N[C@@H](CCN1CCCC(c2ccc3c(c2)OCO3)C1)Cc1cc(F)c(F)cc1F (stereo partly drawn) [Compound 27, (R)-3-(3-Benzo[1,3]dioxol-5-yl-piperidin-1-yl)-1-(2,4,5-trifluoro-benzyl)-propylamine]
98.4 |  | COc1ccc(C2CCN(CC[C@H](N)Cc3cc(F)c(F)cc3F)C2)cc1 (stereo partly drawn) [Compound 17, (R)-3-[3-(4-Methoxy-phenyl)-pyrrolidin-1-yl]-1-(2,4,5-trifluoro-benzyl)-propylamine]
99.5 |  | COCC1CCCN(CC[C@H](N)Cc2cc(F)c(F)cc2F)C1 (stereo partly drawn) [Compound 26, (R)-3-(3-Methoxymethyl-piperidin-1-yl)-1-(2,4,5-trifluoro-benzyl)-propylamine]
99.7 |  | N[C@@H](CCN1CCCC(c2cccc(F)c2)C1)Cc1cc(F)c(F)cc1F (stereo partly drawn) [Compound 12, (R)-3-[3-(3-Fluoro-phenyl)-piperidin-1-yl]-1-(2,4,5-trifluoro-benzyl)-propylamine]
99.3 |  | N[C@@H](CCN1CCC(c2cccc(Cl)c2)C1)Cc1cc(F)c(F)cc1F (stereo partly drawn) [Compound 15, (R)-3-[3-(3-Chloro-phenyl)-pyrrolidin-1-yl]-1-(2,4,5-trifluoro-benzyl)-propylamine]
99.2 |  | COc1ccccc1C1CCN(CC[C@H](N)Cc2cc(F)c(F)cc2F)C1 (stereo partly drawn) [Compound 19, (R)-3-[3-(2-Methoxy-phenyl)-pyrrolidin-1-yl]-1-(2,4,5-trifluoro-benzyl)-propylamine]
99.1 |  | N[C@@H](CCN1CCCC1)Cc1cc(F)c(F)cc1F [Compound 28, (R)-3-Pyrrolidin-1-yl-1-(2,4,5-trifluoro-benzyl)-propylamine]
99.1 |  | N[C@@H](CCN1CCC(c2ccc(C(F)(F)F)cc2)C1)Cc1cc(F)c(F)cc1F (stereo partly drawn) [Compound 20, (R)-1-(2,4,5-Trifluoro-benzyl)-3-[3-(4-trifluoromethyl-phenyl)-pyrrolidin-1-yl]-propylamine]
99.6 |  | N[C@@H](CCN1CCC(c2cccc(F)c2)C1)Cc1cc(F)c(F)cc1F (stereo partly drawn) [Compound 22, (R)-3-[3-(3-Fluoro-phenyl)-pyrrolidin-1-yl]-1-(2,4,5-trifluoro-benzyl)-propylamine]
98.6 |  | CC1CCCN(CC[C@H](N)Cc2cc(F)c(F)cc2F)C1 (stereo partly drawn) [Compound 25, (R)-3-(3-Methyl-piperidin-1-yl)-1-(2,4,5-trifluoro-benzyl)-propylamine]
99.5 |  | N[C@@H](CCN1CCC(c2ccccc2F)C1)Cc1cc(F)c(F)cc1F (stereo partly drawn) [Compound 23, (R)-3-[3-(2-Fluoro-phenyl)-pyrrolidin-1-yl]-1-(2,4,5-trifluoro-benzyl)-propylamine]
 | 99.4 | N[C@@H](CCN1CC[C@H](c2ccc(F)cc2)C1)Cc1cc(F)c(F)cc1F [Compound 29]
